The term EC50 denotes the concentration needed to bring the measured effect to its halfway point. High values mean a need for much substance, low ones an effect from little substance. By ED50 is commonly meant the dose that gives a 50% effect, or the effect in half of the subjects. Low values mean greater potency, high ones weaker potency.

The text below walks through data of ChEMBL document CHEMBL1127069 (J Med Chem, 1993).

Each structure is given as a SMILES string. A value given as a limit tells only on which side of the number the result lay.

Common to all, as to assay type: functional
In one assay the target is Vanilloid receptor (Rattus norvegicus, UniProt Q9ERZ8+Q9WUD2+O35433). Description: Effective concentration for [Ca2+] uptake into dorsal root ganglia neurones in rat cultured spinal sensory neurones.
A further assay relates to Mus musculus. As to the kind of experiment: In vivo analgesic dose in mouse tail flick latency model. On the technique in general: Thermal pain tests record how soon the animal reacts.
The species named for another assay is Cavia porcellus. As to the kind of experiment: In vitro effective dose for contraction of guinea pig ileum.

In turn, `CCCCCCCCC(=O)NC(=S)NCc1ccc(O)c(OC)c1` registered an EC50 at Vanilloid receptor of more than 100000 nM.

Take `CCCCCCCCN/C(NCc1ccc(O)c(OC)c1)=[S+]\C.[I-]`: the EC50 at Vanilloid receptor was more than 100000 nM.

For the compound `CCCCCCCCSC(=O)Cc1ccc(O)c(OC)c1`, the EC50 on Vanilloid receptor stood at 1170 nM.

On to `CCCCCCCCNC(=O)/C=C/c1ccc(O)c(OC)c1`, for which the EC50 on Vanilloid receptor is more than 100000 nM.

As for `CCCCCCCCC(=O)CCc1ccc(O)c(OC)c1`, the EC50 on Vanilloid receptor worked out at 2130 nM.

On to `CCCCCCCCN(C)/C(S)=N/Cc1ccc(O)c(OC)c1`, for which, at Vanilloid receptor, the EC50 worked out at 530 nM. Against the preceding compound, the EC50 is about 4-fold lower.

Consider `CCCCCCCCNC(=O)C(O)c1ccc(O)c(OC)c1` (stereo unspecified), for which the EC50 at Vanilloid receptor is 1160 nM.

Compound `CCCCCCCC/N=C(\S)NCc1ccc(O)c(OC)c1` displayed an ED50 in the assay with Mus musculus of 3.2 µmol/kg.

Turning to `CCCCCCCCC(=O)Nc1ccc(O)c(OC)c1`, the results for the EC50 in the assay filed under Cavia porcellus and on Vanilloid receptor were 1170 nM and 4480 nM, respectively. In the assay on Mus musculus, this compound gave an ED50 of more than 50 µmol/kg.

`CCCCCCCCOC(=O)Cc1ccc(O)c(OC)c1` returned an EC50 at Vanilloid receptor of 670 nM.

With `CCCCCCCCS(=O)(=O)NCc1ccc(O)c(OC)c1`, the EC50 in the assay filed under Cavia porcellus came out at 2900 nM; on Vanilloid receptor it was 1320 nM. In the assay on Mus musculus, this compound yielded an ED50 of more than 50 µmol/kg.

`CCCCCCCCN/C(=C\[N+](=O)[O-])NCc1ccc(O)c(OC)c1` gave an EC50 at Vanilloid receptor of more than 100000 nM.

With `CCCCCCCC/C(S)=N\Cc1ccc(O)c(OC)c1`, the figures for the EC50 in the assay listed under Cavia porcellus and at Vanilloid receptor were 1230 nM and 280 nM, respectively. Also, it took a dose of 38 µmol/kg to reach the 50% effect level in the assay on Mus musculus (ED50).

With `CCCCCCCCC(=O)NCCc1ccc(O)c(OC)c1`, on Vanilloid receptor, the EC50 is 18300 nM.

On to `CCCCCCCCNC(=O)Cc1ccc(O)c(OC)c1`, for which, in the assay with Mus musculus, the 50% effect level (ED50) was put at a dose of 9.2 µmol/kg. This compound came in with an EC50 on Vanilloid receptor of 300 nM.

`CCCCCCCCNC(=O)NCc1ccc(O)c(OC)c1` returned an EC50 on Vanilloid receptor of 360 nM.

At Vanilloid receptor, `CCCCCCCCCC(=O)Cc1ccc(O)c(OC)c1` came in with an EC50 of 3780 nM.

In the case of `CCCCCCCC/N=C(/S)Nc1ccc(O)c(OC)c1`, the values for the EC50 in the assay listed under Cavia porcellus and at Vanilloid receptor were 2560 nM and 2570 nM, respectively. The compound also showed an ED50 in the assay with Mus musculus of more than 50 µmol/kg.

At Vanilloid receptor, `CCCCCCCCC(=O)N(C)Cc1ccc(O)c(OC)c1` came in with an EC50 of more than 100000 nM.

Turning to `CCCCCCCCNC(=O)CCc1ccc(O)c(OC)c1`, on Vanilloid receptor, the EC50 is 2320 nM.

As to `CCCCCCCCCCCc1ccc(O)c(OC)c1`, on Vanilloid receptor, the EC50 was more than 100000 nM.

`CCCCCCCCC(=O)/C=C/c1ccc(O)c(OC)c1` returned an EC50 at Vanilloid receptor of more than 100000 nM.

`CCCCCCCCC(=O)OCc1ccc(O)c(OC)c1` registered an EC50 on Vanilloid receptor of 14200 nM.

Turning to `CCCCCCCCN(C)C(=O)Cc1ccc(O)c(OC)c1`, the EC50 on Vanilloid receptor worked out at 6290 nM.

On Vanilloid receptor, `CCCCCCCCNC(=O)/C=C\c1ccc(O)c(OC)c1` yielded an EC50 of 17900 nM.

For `CCCCCCCCNC(=O)c1ccc(O)c(OC)c1`, the EC50 on Vanilloid receptor was more than 100000 nM.

On to `CCCCCCCC/N=C(/NC#N)NCc1ccc(O)c(OC)c1`, for which the results for the EC50 in the assay listed under Cavia porcellus and on Vanilloid receptor were 6350 nM and 3280 nM, respectively. This compound also returned an ED50 in the assay with Mus musculus of more than 50 µmol/kg.

`CCCCCCCC/N=C(/S)N(C)Cc1ccc(O)c(OC)c1`: on Vanilloid receptor, the EC50 is more than 100000 nM.

In the case of `COc1cc(CNC(=O)CCCC/C=C/C(C)C)ccc1O` [CAPSAICIN], in the assay with Mus musculus, the ED50 was 15 µmol/kg.

In the assay with Mus musculus, `CCCCCCCCC(=O)NCc1ccc(O)c(OC)c1` [NONIVAMIDE] yielded an ED50 of 5 µmol/kg.
